Experiments:
[1] = test system: CD20-expressing Daudi cells; test: Epcoritamab-induced T-cell-mediated cytotoxicity assay with lenalidomide-pretreated T cells; format: cell-based; conditions: T cells pre-treated with lenalidomide (5 or 50 μM) and anti-CD3 for 3 days, Daudi target cells, E:T ratio 2:1
Description: T cells were incubated with (5 or 50 μM) or without lenalidomide in the absence or presence of immobilized anti-CD3 for 3 days. […] Data shown are average percentages cytotoxicity ±SD of duplicates, normalized to medium control (no antibody, no lenalidomide).
(§1) Briefly, T cells were activated with immobilized anti-CD3 in the presence (5 or 50 μM) or absence of lenalidomide for 3 days. […] T cells that were activated in the presence or absence of lenalidomide were subsequently tested for their cytotoxic capacity in response to epcoritamab.

[2] = test system: relapsed or refractory (R/R) B-NHL; highly refractory large B-cell lymphoma; conditions: epcoritamab monotherapy, n=157, cited from earlier work
[3] = test system: T cells; test: T-cell activation with immobilized anti-CD3 in presence or absence of lenalidomide; format: cell-based; conditions: CD3 crosslinking with immobilized anti-CD3, lenalidomide 5 or 50 μM, 3 days; compared to no lenalidomide
Description: T cells were pre-incubated with assay medium or lenalidomide in the absence or presence of CD3 crosslinking by immobilized anti-CD3 for 3 days (as indicated on the x-axes), after which upregulation of CD69, CD25, PD-1 and LAMP-1 on CD4^+ and CD8^+ T cells was determined by flow cytometry. Data shown are geomean fluorescence intensities (FI) for four donors (each circle represents one condition for one donor). Pre-incubation conditions are shown on the x-axis.
as §1

[4] = highly refractory large B-cell lymphoma

Row | Molecule | activity at lower epcoritamab concentrations [1] | maximum percent cytotoxicity ([1]; versus T cells without lenalidomide) | complete response (CR) rate [2, 4] [%] | median duration of response (DOR) [2, 4] [months] | overall response rate (ORR) [2, 4] [%] | safety profile [2] | T-cell activation (upregulation of activation markers CD69, CD25 on the T cell surface, release of granzyme B and IFNγ) [3]
1 | epcoritamab: IgG1 bispecific CD3×CD20 antibody; heavy/light chain pairs SEQ ID NOs: 24/25 and 26/27; CAS 2134641-34-0 | higher activity at lower epcoritamab concentrations | Higher maximum percent cytotoxicity | 39 | 12 | 63 | manageable safety profile | 
2 | Nc1cccc2c1CN(C1CCC(=O)NC1=O)C2=O (stereo not shown) [lenalidomide, 3-(4-Amino-1-oxo-1,3-dihydro-2H-isoindol-2-yl) piperidine-2,6-dione] |  |  |  |  |  |  | increased T-cell activation
